pIC50: −log10 of the molar value.

The values below come from BindingDB's records for doi:10.1021/acs.jmedchem.7b00315 (St. John'S University, 2018).

This assay is described as follows: Inhibition of GP2b/3a in human platelet-rich plasma assessed as reduction in collagen-induced platelet aggregation preincubated for 1 min followed by collagen addition by aggregometric analysis.
Regarding `CCOC(=O)CC1CCN(C(=O)C(C)(C)[C@H](CC)NC(=O)c2ccc(C(=N)N3CCSC3)cc2F)CC1`, the pIC50 was 5.51.
Under `CCOC(=O)CC1CCN(C(=O)CC(CC)NC(=O)c2ccc(C(=N)N3CCSC3)cc2F)CC1` (stereo not drawn) stands 7.30; under `CCOC(=O)CC1CCN(C(=O)C(C)(C)[C@@H](CC)NC(=O)c2ccc(C(=N)N3CCSC3)cc2F)CC1` [(1-{3-[2-Fluoro-4-(imino-thiazolidin-3-yl-methyl)-benzoylamino]-2,2-dimethyl-pentanoyl}-piperidin-4-yl)-acetic acid ethyl ester(NSL-96184)], 7.66.

What is called pIC50 is the IC50 on a negative log10 scale, so that one unit is a factor of ten.
